The text below walks through data of EP0317105A2, “Phenylalanine derivative and its uses” (AJINOMOTO CO., INC., priority 1987, dated 1989).

For series [1], the system named is male ICR mice. As to the kind of experiment: Toxicity test: oral administration to mice, survival and LD50. It counts as in vivo. The conditions noted are these: for Number of living mice: among 10 head, observation after two weeks; for LD₅₀ values: oral, mice, in words, compared with the known absorption accelerator. As to the method:
A known absorption accelerator, N-(α-fluoro-4-methylcinnamoyl)-L-phenylalanine, and the two absorption accelerators of this invention were each suspended in 0.5% solution of CMC sodium salt at different concentrations, each suspension was orally administered to male ICR mice of 4-week age ( each group consisting of 10 head ), and LD₅₀ values were measured based on the observations after two weeks. The result is summarized in Table 2, in which the figures show the number of living mice when 1.0 g/Kg and 3.0 g/Kg of the compounds were administered.

Series [2] is described as follows: Activity test using dogs: oral gelatin capsules of insulin plus absorption accelerator, serum glucose measured. It counts as in vivo, male beagles. The following applies: 50 U/Kg insulin + 25 mg/Kg sodium salt of absorption accelerator, average of two dogs, compared with N-(α-fluoro-4-methylcinnamoyl)-L-phenylalanine. The protocol: An absorption acceleration test was conducted using dogs to compare the absorption accelerators of this invention with a known absorption accelerator, N-(α-fluoro-4-methylcinnamoyl)-L-phenylalanine.
Gelatin capsules containing 50 U/Kg insulin and 25 mg/Kg sodium salt of absorption accelerator were orally administered to male beagles of 6- to 8-month age fasted for 18 hours. In this test, the same two dogs were used for each of test samples.
A blood sample was taken from each dog at definite intervals from the peripheral vein in a paw, the amount of glucose in the serum was measured, and the average of two head was calculated. The result is sumarized in the figure.

The nature of series [3]: Activity test using mice: oral insulin co-administered with absorption accelerator, blood glucose and blood insulin measured. The class given is in vivo, female ICR-CDI mice. The conditions noted are these: insulin 0.5 U/10 g + absorption accelerator 3 mg/10 g, vs control group. As to the method:
Each of the absorption accelerators prepared above was suspended in 0.5% CMC/0.05M Tris-HCl buffer ( pH 7.8 ), insulin was admixed to this suspension, and the resulting mixture was orally administered to a group of female ICR-CDI mice ( five head of 5- to 7-week age ) fasted for 18 hours ( insulin: 0.5 U/10 g, absorption accelerator: 3 mg/10 g ). The rate of reduction in blood glucose (%) and the factor of increase in the insuline level in the blood, in comparison with the data of the control group, were measured at definite intervals.

For the compound `Cc1ccc(C=C(F)C(=O)N[C@@H](Cc2ccccc2)C(=O)O)cc1` [N-(α-fluoro-4-methylcinnamoyl)-L-phenylalanine, reference compound], the “Number of living mice” value in series [1] (1.0 g/Kg oral) came to 10; in series [1] (3.0 g/Kg oral) it was 6.

With `Cc1ccc(C(Cl)=CC(=O)N[C@H](Cc2ccccc2)C(=O)O)cc1` [N-(β-chloro-4-methylcinnamoyl)-D-phenylalanine], the “effect of reducing the glucose level in the serum” value in series [2] was “far higher effect of reducing the glucose level in the serum over longer periods”. The “Factor of increase in blood-insulin level” value in series [3] (15 minutes) is 2) 2.1; in series [3] (30 minutes) it was 2) 3.3. Besides, the “Rate of reduction in blood glucose level” value is on record as 1) 35.7% in series [3] (15 minutes), 1) 47.8% in series [3] (30 minutes) and 1) 42.8% in series [3] (60 minutes). Moreover, the figures for the “Number of living mice” value in series [1] (1.0 g/Kg oral) and in series [1] (3.0 g/Kg oral) were 10 and 6, respectively. Further, in series [1], the LD₅₀ values entry is on record as “equal to, or higher than, that of the known absorption accelerator”.

As to `Cc1ccc(C(Cl)=CC(=O)N[C@@H](Cc2ccccc2)C(=O)O)cc1` [N-(β-chloro-4-methylcinnamoyl)-L-phenylalanine], the “effect of reducing the glucose level in the serum” value in series [2] was “far higher effect of reducing the glucose level in the serum over longer periods”. The “Factor of increase in blood-insulin level” value in series [3] (15 minutes) was 2) 10.5; in series [3] (30 minutes), 2) 2.0; in series [3] (60 minutes, "-" = no increase in blood insulin level was observed), 2) 2.1. Further, the “Rate of reduction in blood glucose level” value in series [3] (15 minutes) was 1) 42.1%; in series [3] (30 minutes), 1) 21.6%; in series [3] (60 minutes), 1) 12.2%. Besides, the “Number of living mice” value in series [1] (1.0 g/Kg oral) and in series [1] (3.0 g/Kg oral) was 10 in each case. Also, the LD₅₀ values entry in series [1] is listed as “equal to, or higher than, that of the known absorption accelerator”.
